Data taken from patent US8148407B2, “Compounds derived from 5-thioxylose and their use in therapeutics” (Laboratories Fournier S.A., priority 2005, dated 2012).

How the values were obtained:
[1] = tested on: venous thrombosis; experiment: Venous thrombosis test in the rat (Wessler venous stasis under hypercoagulation with factor Xa), oral administration; format: in vivo; settings: Wistar male rats
Protocol: The antithrombotic activity of the compounds according to the invention was studied in vivo in the rat by means of a test that reproduces a venous thrombosis. The venous thrombosis was induced according to the protocol described in Thromb. Haemost., 1992, 67(1), 176-179. The oral activity was studied according to the following operating protocol: The experiments are performed on non-fasted Wistar male rats weighing 250 to 280 g, divided into groups of 10 animals each. The test products are administered orally (tubage) dissolved or suspended in a solution of methyl cellulose (0.5% in water). […] To induce this thrombosis, a venous stasis is created under hypercoagulation according to the technique described by WESSLER (J. Applied Physiol., 1959, 943-946), the hypercoagulating agent used being a solution of activated factor X (Xa) having a concentration of 7.5 nKat/kg, supplied by Biogenic (Montpellier). The venous stasis is effected exactly 10 seconds after injection of the hypercoagulating agent. The activity of the test compounds was checked at different doses after they had been administered.

[2] = Rattus norvegicus, dose 6 mg/kg, thrombosis induced 2 h after administration, read-out: Oral activity: Activity (percentage inhibition of thrombus formation)
[3] = dose 6 mg/kg, thrombosis induced 2 h after administration

melting point [°C]	SMILES	inhibition in vivo at 6 mg/kg [1, 2] [%]	further results
	CC(=O)O[C@@H]1[C@@H](OC(C)=O)[C@H](OC(C)=O)CS[C@H]1Oc1cncc(-c2ccc(C#N)cc2)c1 [Example 15, [5-(4-cyanophenyl)-3-pyridinyl]2,3,4-tri-O-acetyl-5-thio-β-D-xylopyranoside]		Oral activity: Activity (percentage inhibition of thrombus formation) ([1]; dose 8.2 mg/kg, thrombosis induced 2 h after administration): 84%
	CC(=O)c1ccc(O[C@@H]2SC[C@@H](O)[C@H](O)[C@H]2O)cn1 [Example 2, 6-acetyl-3-pyridinyl 5-thio-β-D-xylopyranoside]	63	
191	Cc1ccc(-c2ccc(O[C@@H]3SC[C@@H](O)[C@H](O)[C@H]3O)cn2)cc1 [Example 99, 6-(4-methylphenyl)-3-pyridinyl 5-thio-β-D-xylopyranoside]	72	
200	COc1ccc(-c2cncc(O[C@@H]3SC[C@@H](O)[C@H](O)[C@H]3O)c2)cc1F [Example 103, 5-(3-fluoro-4-methoxyphenyl)-3-pyridinyl 5-thio-β-D-xylopyranoside]	100	
	N#Cc1ccc(C(=O)c2ncccc2O[C@@H]2SC[C@@H](O)[C@H](O)[C@H]2O)cc1 [Example 6, [2-(4-cyanobenzoyl)-3-pyridinyl]5-thio-β-D-xylopyranoside]		Oral activity: Activity (percentage inhibition of thrombus formation) [1, 3]: 61%; Oral activity: Activity (percentage inhibition of thrombus formation) ([1]; dose 6 mg/kg, thrombosis induced 8 h after administration): 26%
228	COc1ccc(-c2ccncc2O[C@@H]2SC[C@@H](O)[C@H](O)[C@H]2O)cc1 [Example 101, 4-(4-methoxyphenyl)-3-pyridinyl 5-thio-β-D-xylopyranoside]	97	
	O[C@@H]1[C@@H](O)[C@H](Oc2cncc(-c3ccc(F)c(Cl)c3)c2)SC[C@H]1O [Example 131, 5-(3-chloro-4-fluorophenyl)-3-pyridinyl 5-thio-β-D-xylopyranoside]	80	
	N#Cc1ccc(-c2ncccc2O[C@@H]2SC[C@@H](O)[C@H](O)[C@H]2O)cc1 [Example 12, [2-(4-cyanophenyl)-3-pyridinyl]5-thio-β-D-xylopyranoside]		Oral activity: Activity (percentage inhibition of thrombus formation) [1, 3]: 14%
197	Cc1cc(-c2cncc(O[C@@H]3SC[C@@H](O)[C@H](O)[C@H]3O)c2)ccc1F [Example 59, 5-(4-fluoro-3-methylphenyl)-3-pyridinyl 5-thio-β-D-xylopyranoside]	82	
123	CC(=O)c1ncccc1O[C@@H]1SC[C@@H](O)[C@H](O)[C@H]1O [Example 4, 2-acetyl-3-pyridinyl 5-thio-β-D-xylopyranoside]	96	
217	Cc1cc(F)ccc1-c1cncc(O[C@@H]2SC[C@@H](O)[C@H](O)[C@H]2O)c1 [Example 61, 5-(4-fluoro-2-methylphenyl)-3-pyridinyl 5-thio-β-D-xylopyranoside]	98	
	O=C(c1ccc(C(F)(F)F)cc1)c1ccc(O[C@@H]2SC[C@@H](O)[C@H](O)[C@H]2O)cn1 [Example 8, [6-[4-(trifluoromethyl)benzoyl]-3-pyridinyl]5-thio-β-D-xylopyranoside]		Oral activity: Activity (percentage inhibition of thrombus formation) [1, 3]: 46%
	O[C@@H]1[C@@H](O)[C@H](Oc2cncc(-c3ccccc3F)c2)SC[C@H]1O [Example 126, 5-(2-fluorophenyl)-3-pyridinyl 5-thio-β-D-xylopyranoside]	91	
	CC(=O)O[C@@H]1[C@@H](OC(C)=O)[C@H](OC(C)=O)CS[C@H]1Oc1cccnc1C(C)=O [Example 3, 2-acetyl-3-pyridinyl 2,3,4-tri-O-acetyl-5-thio-β-D-xylopyranoside]		inhibition in vivo at 8.6 mg/kg ([1]; Rattus norvegicus, dose 8.6 mg/kg, thrombosis induced 2 h after administration, read-out: Oral activity: Activity (percentage inhibition of thrombus formation)): 92%
	O[C@@H]1[C@@H](O)[C@H](Oc2cncc(-c3cccc(F)c3)c2)SC[C@H]1O [Example 123, 5-(3-fluorophenyl)-3-pyridinyl 5-thio-β-D-xylopyranoside]	97	
157	CC(=O)O[C@@H]1[C@@H](OC(C)=O)[C@H](OC(C)=O)CS[C@H]1Oc1cncc(C(C)=O)c1 [Example 118, 5-acetyl-3-pyridinyl 2,3,4-tri-O-acetyl-5-thio-β-D-xylopyranoside]		
202 to 206	Cc1cc(C#N)ccc1-c1cncc(O[C@@H]2SC[C@@H](O)[C@H](O)[C@H]2O)c1 [Example 154, 5-(4-cyano-2-methylphenyl)-3-pyridinyl 5-thio-β-D-xylopyranoside]		
208 to 211	O[C@@H]1[C@@H](O)[C@H](Oc2cncc(-c3ccc(F)cc3Cl)c2)SC[C@H]1O [Example 89, 5-(2-chloro-4-fluorophenyl)-3-pyridinyl 5-thio-β-D-xylopyranoside]	100	
207	Cc1ccc(-c2cncc(O[C@@H]3SC[C@@H](O)[C@H](O)[C@H]3O)c2)c(Cl)c1 [Example 111, 5-(2-chloro-4-methylphenyl)-3-pyridinyl 5-thio-β-D-xylopyranoside]		
214	N#Cc1ccc(-c2cncc(O[C@@H]3SC[C@@H](O)[C@H](O)[C@H]3O)c2)cc1F [Example 91, 5-(4-cyano-3-fluorophenyl)-3-pyridinyl 5-thio-β-D-xylopyranoside]		
192	N#Cc1ccc(-c2cncc(O[C@@H]3SC[C@@H](O)[C@H](O)[C@H]3O)c2)cc1C#N [Example 156, 5-(3,4-dicyanophenyl)-3-pyridinyl 5-thio-β-D-xylopyranoside]		
	O[C@@H]1[C@@H](O)[C@H](Oc2cncc(-c3ccccc3)c2)SC[C@H]1O [Example 14, 5-phenyl-3-pyridinyl 5-thio-β-D-xylopyranoside]	50	
